Reference: patent publication US10668102B2, “Lineage differentiation of encapsulated embryonic stem cells” (Rutgers, The State University of New Jersey, priority 2010, dated 2020)

Tests used:
encapsulated ES cells [1] = test: Three dimensional alginate poly-L-lysine encapsulated oligodendrocyte differentiation, immunofluorescence; assay type: cell-based, mouse; details: for O1 expression / CNPase expression / MBP expression: IMDM + RA 8 days then PPAR agonist; for CNPase expression: peak
Description: The alginate encapsulation process was done using the protocol setup by Maguire, T., et al., Biotechnol. Bioeng., 93(3):581-91(2006). Briefly, an alginate solution was generated by dissolving 2.2 g of alginate (Sigma-Aldrich, MW: 100,000-200,000 g/mol, GContent: 65%-70%) in 100 mL of Ca^2+ free DMEM, using a heated magnetic stir plate at a temperature of 45° C. The solution was then filtered using a 25-micron syringe filter (Fisher Brand, Pittsburgh, Pa.). A confluent monolayer of undifferentiated ES cells were removed following trypsin incubation, centrifuged for 10 min at 1,000 rpm, and resuspended in PBS. The cells were washed twice more with PBS, resuspended in 2 mL of their respective media (IMDM, IMDM+Retinoic Acid (RA) (1×10^−7M), DMEM/F12+N2) and both cell number and viability assessed using the method of trypan blue (Gibco) exclusion. To create the cell-alginate mixture, 1 mL of cell suspension with a density of 50×10^6 cells/mL was added to 9 mL of a 2.2% (w/v) alginate solution to yield a final cell density of 5×10^6 cells/mL and a final alginate concentration of 2.0% (w/v). This solution was transferred to a 10 mL syringe (BD Biosciences), which, in turn was connected to a syringe pump (KD Scientific, Holliston, Mass.). Alginate beads were generated using an electrostatic bead generator (Nisco, Zurich, Switzerland) at a flow rate of 40 mL/h, and an applied voltage of 6.5 kV, resulting in beads with a diameter of 500 μm. The beads were collected in a 200 mL bath of CaCl2 (100 mM) (Sigma-Aldrich), containing 145 mM NaCl (Sigma-Aldrich), and 10 mM MOPS (Sigma-Aldrich) and were left to polymerize for 10 minutes at room temperature. Beads were transferred to a tissue culture treated 1-25 flask (Falcon, BD Biosciences), following the polymerization step. The CaCl2 solution was removed using a 5 mL pipette, and the beads were washed with 5 mL of HEPES (Gibco). The HEPES was removed and the beads were re-suspended in 5 mL of poly-L-lysine (PLL) (Sigma-Aldrich, MW: 68,600 g/mol) (0.05% w/v) for 2 min. The PLL was then gently removed, replaced with HEPES to wash the beads and the beads were ultimately re-suspended in 5 mL of cell culture media. Media was changed every 4 days post-encapsulation. In all experimental conditions, monolayer culture configurations were used as controls.
Cells were fixed for immunofluorescence analysis on Days 8, 14, 18 and 22.
Cells were fixed before doing any immunofluorescence.
Specimens were excited using a 488 nm filter.

ESD3 cells [2] = test: Oil Red O staining of monolayer ESD3 cells; assay type: cell-based, mouse; details: 2D, by Day 30
Description: After the cells were fixed using 4% paraformaldehyde, they were then washed twice with PBS and rinsed once with 60% isopropanol (Sigma) for 5 minutes. A 0.18% Oil Red O (Sigma) solution in diH2O was then added to the cells for 10 minutes (diluted down from a 0.3% stock solution of Oil Red O in 99% isopropanol and filtered through filter paper). The cells were then rinsed several times with PBS (30 second rinses) until all excess Oil Red O was removed. […] Images were taken using an Olympus CKX-41 microscope with an Olympus Magnafire Color Camera and Magnafire software v.2.1C.
Oil Red O is a fat-soluble dye used for the staining of neutral triglycerides and lipids and among other things is used to detect myelin and myelin degradation products (Boven, L. A., et al., Brain, 129(Pt 2):517-526 (2006); Zou, T., et al., J. Neuropathol. Exp. Neurol., 65(1):78-86 (2006)).

ESD3 cells [3] = details: for cell morphology / CNPase expression over time / O1 expression over time: 2D; for cell morphology: Day 30, after 14 days of agonist exposure; for CNPase expression over time / O1 expression over time: agonist from Day 16 to Day 30
Source text: In order to induce differentiation, cells were replated into gelatin coated 6 well plates (Biocoat, BD-Biosciences, Bedford, Mass.) at a density of 1×10^4 cells/cm^2. Cells were placed in DMEM/F12 (Invitrogen, Carlsbad, Calif.) media supplemented with 1% N-2 (Invitrogen—contains human transferrin, insulin, progesterone, putrescine and selenite), 100 U/mL penicillin and 100 U/mL streptomycin for 8 days. Every 2 days, media was aspirated and replaced with fresh media. On day 8, the cells were replated at a density of 0.5×10^4 cells/cm^2 into 24 well plates (Falcon, BD Biosciences, San Jose, Calif.) that were precoated with 0.1% Gelatin (Sigma-Aldrich) for 1 hour at 37° C. To aid in cell attachment, 10 ng/ml basic fibroblast growth factor (bFGF) was added. From day 8 to day 16, 1% Fetal Bovine Serum (FBS-Invitrogen) is added. Every 2 days, media was aspirated and replaced with fresh media.
On day 16, the cells are replated at a density of 0.5×10^4 cells/cm^2 into the same differentiation media supplemented with either 10 μM PPAR alpha (Sigma-Aldrich: WY-14643), 1 μM PPAR delta (Sigma-Aldrich: GW0742), or 10 μM PPAR gamma (Sigma-Aldrich: GW1929). All three agonists were dissolved in 0.05% DMSO (Sigma-Aldrich). Every 2 days, media was aspirated and replaced with fresh media with agonists. Cells were fixed for immunofluorescence analysis on Days 22, 26 and 30.
Cells were fixed before doing any immunofluorescence. This was done by first washing the cells 3 times in Tris Buffered Saline (TBS) followed by incubating the cells in 4% paraformaldehyde (Sigma-Aldrich) for 15 minutes at room temperature. The cells were again washed 3 times in TBS for 5 minutes at room temperature). In order to reduce non-specific binding of the antibodies to proteins on/within the cells, they were first blocked for 45 minutes at room temperature by incubating the cells with TBS, 10% goat serum (Invitrogen), 1% Bovine Serum Albumin (BSA-Sigma) and depending on if the protein in question is intracellular, 0.1% Triton X-100. The cells were then incubated overnight at 4° C. with the respective primary antibody in TBS, 1% goat serum and if the protein in question was intracellular, 0.1% Triton X-100. The antibodies used were: 5 μg/ml mouse anti-A2B5 IgM (Chemicon), 2 μg/ml mouse anti-O1 IgM (R&D Systems, Minneapolis, Minn.), 12.6 μg/ml mouse anti-CNPase (2′, 3′-cyclic nucleotide 3′-phosphodiesterase) IgG1 (Sigma) and 8 μg/ml rabbit anti-Myelin Basic Protein IgG (MBP—abcam, Cambridge, Mass.). To account for non-specific binding, isotype controls were used for each antibody: for A2B5 and O1—mouse IgM (Chemicon), for CNPase—mouse IgG1 (BD Biosciences) and for MBP—rabbit IgG (Invitrogen). The cells were washed 3 times for 5 minutes in TBS and if the protein in question was intracellular, 0.1% […]. The cells were then incubated for 1 hour at room temperature with the respective secondary in TBS and if the protein in question is intracellular, 0.1% Triton X-100. The secondaries used were: for A2B5 and O1—Alexa Fluor 488 goat anti-mouse IgM (Invitrogen—1:500), CNPase—Alexa Fluor 488 goat anti-mouse IgG1 (Invitrogen—1:500) and MBP—Alexa Fluor 488 goat anti-rabbit IgG (Invitrogen—1:500). The cells were then washed 2 times in TBS for 5 minutes at room temperature. The cells were counterstained with Hoechst 33342 (Invitrogen) for 10 minutes at room temperature (1 μg/ml).
Fluorescent images were acquired using a computer interfaced inverted Olympus IX70 microscope. Specimens were excited using a 488 nm filter. Fluorescent intensity values were determined for each cell using Olympus Microsuite™ software. Experimental intensity values for each cell were calculated after subtracting the average intensity of the isotype control.

encapsulated ES cells [4] = test: Intracapsular aggregate size of encapsulated ES cells; assay type: cell-based, mouse; details: in the presence of retinoic acid, entire differentiation period
Description: Bright field images were acquired using an Olympus IX70 microscope and an Olympus digital camera. For each microcapsule, 5 z-sectional images were taken at 50 μm intervals to avoid multiple quantification of the same aggregate, for a total depth of 250 μm. Image quantification was conducted using Olympus Microsuite imaging analysis software.

encapsulated ES cells [5] = test: Intracapsular immunofluorescence of neural lineage markers and albumin in encapsulated ES cells; assay type: cell-based, mouse; details: 2.2% alginate, 10^-7 M retinoic acid
Description: Alginate solution was prepared by dissolving 2.2 g of alginic acid sodium salt (MW: 100,000-200,000 g/mol, G Content: 65%-70%, Sigma-Aldrich) in 100 mL of Ca^2+ free DMEM (Gibco), using a heated magnetic stir plate at a temperature of 65° C. The solution was then filtered using a 45 μm syringe filter (Fisher Scientific, Pittsburgh, Pa.). To create the cell-alginate mixture, 1 mL aliquot of cell suspension with a seeding density of 5×10^7 cells/mL was added to 9 mL of either 1.2%, 1.7%, 2.2% or 2.5% (w/v) alginate solution to yield a final cell seeding density of 5×10^6 cells/mL. This solution was transferred to a 10 mL syringe, and was connected to a syringe pump (KD Scientific, MA). Alginate beads were generated using an electrostatic bead generator (Nisco, Zurich, Switzerland) at a flow rate of 40 mL/h, and an applied voltage of 6.4 kV. The beads were extruded into a 200 mL bath of CaCl2 (100 mM), containing 145 mM NaCl, and 10 mM MOPS (all from Sigma-Aldrich) and were left to polymerize for 10 min at room temperature (Maguire, T., et al., Biotechnol. Bioeng., 93(3):581-591 (2006)). Beads were then transferred to a tissue culture treated T-25 flask. The CaCl2 solution was removed using a 5 mL pipette, and the beads were washed with 5 mL of HEPES (Gibco). The HEPES was removed and the beads were resuspended in 5 mL of poly-L-lysine (PLL) (Sigma-Aldrich, MW 68,600 g/mol) (0.05% w/v) for 2 min. The PLL was then gently removed, replaced with HEPES to wash the beads and the beads were ultimately resuspended into 5 mL of IMDM medium (Invitrogen, Carlsbad, Calif.) media with and without 10^−7M trans-retinoic acid (Bain, G., et al., Dev. Biol., 168(2):342-357 (1995)). Media was changed at days 4, 8, 12, 16 and 20 post-encapsulation.
To assess the effect of RA on lineage commitment within the alginate microenvironment, individual cells were examined within the encapsulated population using indirect immunofluorescence analysis with a panel of neural lineage specific antibodies, including neurofilament 160 kD (neuronal marker), O1 (oligodendrocyte marker) and GFAP (astrocyte marker). Specific antibody binding was assessed relative to a non-specific immunoglobulin control.
After assessing the neural specific markers, the inventors also investigated the effects of different alginate concentrations, e.g., 1.2%, 1.7% and 2.5%, on neural differentiation in the alginate encapsulation microenvironment.
Encapsulated cells were washed with PBS (Gibco) and fixed on days 4, 8, 12, 16 and 20 with 4% paraformaldehyde to evaluate surface proteins or together with 0.25% Triton-X to evaluate intracellular protein expression. […]

ES cell line D3 = test: Cell number and viability of alginate-encapsulated ES cells (trypan blue after depolymerization); assay type: cell-based, mouse; details: 2.2% w/v alginate, 5×10^6 cells/mL, with RA
Description: All cell cultures were incubated in a humidified 37° C., 5% CO2 environment. The ES cell line D3 (ATCC, Manassas, Va.) was maintained in an undifferentiated state in T-75 gelatin-coated flasks (Biocoat, BD-Biosciences, Bedford, Mass.) in Knockout Dulbecco's modified Eagles medium (Gibco, Grand Island, N.Y.) containing 15% knockout serum (Gibco), 4 mM L-glutamine (Gibco), 100 U/ml penicillin (Gibco), 100 U/ml streptomycin (Gibco), 10 mg/ml gentamicin (Gibco), 1,000 U/ml ESGRO™ (Chemicon, Temecula, Calif.) and 0.1 mM 2-mercaptoethanol (Sigma-Aldrich, St. Louis, Mo.). Media was changed every two days until plates were confluent. ES cultures were split and passaged every 6 days. Following media aspiration, cells were washed with 10 mL of phosphate buffered solution (PBS) (Gibco), detached using 3 mL of trypsin EDTA (Gibco) for 3 minutes, and subsequently 12 mL of Knockout DMEM was added. Cells were then replated in gelatin-coated T-75 flasks at a density of 1 million cells/mL and only passages 10 through 25 were used in the experiments. In order to induce differentiation, cells were cultured in Iscove's modified Dulbecco's medium (Gibco) containing 20% fetal bovine serum (Gibco), 4 mM L-glutamine (Gibco), 100 U/ml penicillin (Gibco), 100 U/ml streptomycin (Gibco), 10 mg/ml gentamicin (Gibco) in the presence or absence of 10^−7M trans-retinoic acid (Sigma-Aldrich). […]

encapsulated ES cells [6] = test: Three dimensional alginate poly-L-lysine encapsulated oligodendrocyte differentiation, immunofluorescence; assay type: cell-based, mouse; details: 3D encapsulated, IMDM with Retinoic Acid, Day 12

| SMILES | O1 expression (encapsulated ES cells [1]; 3D, day 22) | CNPase expression (encapsulated ES cells [1]; 3D, day 22) | Oil Red O stain compared to control (ESD3 cells [2]) | cell morphology (ESD3 cells [3]) | CNPase expression over time (ESD3 cells [3]) | O1 expression over time (ESD3 cells [3]) | MBP expression (encapsulated ES cells [1]; 3D, day 22) | other results |
| --- | --- | --- | --- | --- | --- | --- | --- | --- |
| Cc1cccc(Nc2cc(Cl)nc(SCC(=O)O)n2)c1C [PPAR alpha, WY-14643] | ~15% | about 60% | minimal effect compared to control | majority of cells have extended processes with some having secondary branching | increases over the initial 6 days and stabilizes for the remaining 8 days | drops consistently over the 14 day period | – | MBP expression over time (encapsulated ES cells [1]; 3D, IMDM + RA 8 days then PPAR agonist for 14 days): stays pretty constant over the time period; O1 expression (encapsulated ES cells [1]; 3D, day 18): ~35% |
| Cc1cc(SCc2sc(-c3ccc(C(F)(F)F)c(F)c3)nc2C)ccc1OCC(=O)O [PPAR delta, GW0742] | – | about 40% | significantly higher than control | majority of cells have extended processes with some having secondary branching | gradually increases over the 14 day period | drops sharply over the last 8 days | ~80% | differentiation at various concentrations (encapsulated ES cells [1]; 3D, 0.1 μM, 1 μM and 10 μM): No significant differences |
| CN(CCOc1ccc(C[C@H](Nc2ccccc2C(=O)c2ccccc2)C(=O)O)cc1)c1ccccn1 [PPAR gamma, GW1929] | about 22% | ~53% | significantly higher than control | two distinct morphologies | large increase over the initial 10 days thereafter stabilizing | gradually tapers over the 14 day period | about 45% | O1 expression (encapsulated ES cells [1]; 3D, day 14): about 42%; MBP expression (encapsulated ES cells [1]; 3D, day 18): about 74%; cell death compared to all other cases (ESD3 cells [3]): significant increase in cell death |
| CC1=C(/C=C/C(C)=C/C=C/C(C)=C/C(=O)O)C(C)(C)CCC1 [retinoic acid, trans-retinoic acid] | – | – | – | – | – | – | – | A2B5 expression (highest, as stated in text) (encapsulated ES cells [1]; 3D encapsulated, exposure to RA for 16 days): 44%; size of individual cells (encapsulated ES cells [4]): approximately 13 μm; encapsulated cells stained positively for intracellular albumin (encapsulated ES cells [5]): less than 5%; maximum percentage of encapsulated cells positively stained for GFAP (encapsulated ES cells [5]): 38.6%; maximum percentage of encapsulated cells positively stained for NF 150 kD (encapsulated ES cells [5]): 41.9%; maximum percentage of encapsulated cells positively stained for O1 (encapsulated ES cells [5]): 32.3%; final density relative to the initial seeding density (ES cell line D3; 20-day culture): 2.5 times; Cell viability (ES cell line D3; throughout the culture period): greater than 95%; CNPase expression (encapsulated ES cells [6]): 32%; O1 expression (encapsulated ES cells [6]): 32% |
